Tests used:
HiBit-KRAS^G12C [1] = target: T1, HiBit-KRAS^G12C (Homo sapiens, UniProt P01116, G12C); assay: HiBit degradation assay in SW1573 HiBit-KRas^G12C cells; type: cell-based; parameters: expressed in transfected cells; host or cells: SW1573 (clone E6), modified pcDNA3.1 vector, TK promoter; settings: 24 hours; for Dmax: SW1573, SW1573 HiBit-KRas^G12C; for DC50: SW1573 HiBit-KRas^G12C
Method in brief: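 HiBit-KRAS G12C degradation was measured after a 24 h compound exposure (titrated 10 μM–20 nM) in engineered SW1573 cells. Lytic HiBit luminescence, expressed relative to DMSO controls, yielded DC50 and Dmax from 4-parameter fits. Concentrations causing ≥50% loss in alamar blue viability were omitted as cytotoxic.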

HiBit-KRAS^G12C [2] = target: T1, HiBit-KRAS^G12C; assay: HiBit degradation assay in MiaPaCa-2 HiBit-KRas^G12C cells; type: cell-based; settings: 24 hours; for Dmax: maximum degradation
Method in brief: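 DC50 and Dmax come from 4-parameter fits of DMSO-normalized HiBit luminescence after 24 hours' exposure at 37° C to 10 μM–20 nM compound in 0.1% or 0.5% DMSO. Cells: MiaPaCa-2 carrying one endogenously HiBit-tagged KRAS^G12C allele; concentrations causing ≥50% […] viability loss (alamar blue) excluded.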

[3] = 0.1% DMSO, read-out: KRas^G12C-HiBit (SW1573; 0.1% DMSO) Dmax**
[4] = 0.5% DMSO, read-out: KRas^G12C-HiBiT (SW1573; 0.5% DMSO) Dmax**
[5] = 0.1% DMSO, read-out: KRas^G12C-HIBit (SW1573; 0.1% DMSO) DC50*
[6] = read-out: KRas^G12C-HiBiT (SW1573; 0.5% DMSO) IC50***, 0.5% DMSO
[7] = read-out: KRas^G12C-HiBiT (MiaPaCa; 0.1% DMSO) IC50, MiaPaCa-2 HiBit-KRas^G12C cells, 0.1% DMSO
[8] = read-out: KRas^G12C-HiBiT (MiaPaCa; 0.5% DMSO) IC50, MiaPaCa-2 HiBit-KRas^G12C cells, 0.5% DMSO
[9] = MIA PaCa-2, MiaPaCa-2 HiBit-KRas^G12C cells, 0.5% DMSO, read-out: KRas^G12C-HiBiT (MiaPaCa; 0.5% DMSO) DMax
[10] = MIA PaCa-2, MiaPaCa-2 HiBit-KRas^G12C cells, 0.1% DMSO, read-out: KRas^G12C-HiBiT (MiaPaCa; 0.1% DMSO) DMax

T1 sequence (P01116 1-186 isoform P01116-2 G12C limits assumed): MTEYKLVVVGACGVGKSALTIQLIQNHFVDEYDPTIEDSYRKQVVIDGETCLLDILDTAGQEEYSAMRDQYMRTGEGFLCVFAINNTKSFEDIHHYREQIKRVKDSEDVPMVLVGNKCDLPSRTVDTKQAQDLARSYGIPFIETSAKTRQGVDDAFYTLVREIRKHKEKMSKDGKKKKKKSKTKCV

Dmax (HiBit-KRAS^G12C [1]; [3]) [%] | Dmax (HiBit-KRAS^G12C [1]; [4]) [%] | DC50 (HiBit-KRAS^G12C [1]; [5]) [µM] | DC50 (HiBit-KRAS^G12C [1]; [6]) [µM] | DC50 (HiBit-KRAS^G12C [2]; [7]) [µM] | DC50 (HiBit-KRAS^G12C [2]; [8]) [µM] | Dmax (HiBit-KRAS^G12C [2]; [9]) [%] | Dmax (HiBit-KRAS^G12C [2]; [10]) [%] | Structure (SMILES) | Dmax (HiBit-KRAS^G12C [2]; MIA PaCa-2, read-out: KRas^G12C-HiBiT (MiaPaCa; 0.1% DMSO) DMax, MiaPaCa-2 HiBit-KRas^G12C cells, 0.1% DMSO) [%]
< 35 | 35 to 70 | 0.1 to 1 | > 1 | > 1 | > 1 | – | – | C=CC(=O)N1CCN(c2nc(O[C@H](C)CN3CCC(OCCOCC(=O)N[C@H](C(=O)N4C[C@H](O)C[C@H]4C(=O)N[C@@H](C)c4ccc(-c5scnc5C)cc4)C(C)(C)C)CC3)nc3c(F)c(-c4c(O)cccc4F)c(Cl)cc23)CC1 [Compound 61, (2S,4R)-1-[(2S)-2-{2-[2-({1-[(2R)-2-{[6-chloro-8-fluoro-7-(2-fluoro-6-hydroxyphenyl)-4-[4-(prop-2-enoyl)piperazin-1-yl]quinazolin-2-yl]oxy}propyl]piperidin-4-yl}oxy)ethoxy]acetamido}-3,3-dimethylbutanoyl]-4-hydroxy-N-[(1S)-1-[4-(4-methyl-1,3-thiazol-5-yl)phenyl]ethyl]pyrrolidine-2-carboxamide] | –
– | 35 to 70 | – | < 0.1 | – | 0.1 to 1 | 35 to 70 | – | C=CC(=O)N1CCN(c2nc(OCCN3CCC(COc4cc([C@@H](C(=O)N5C[C@H](O)C[C@H]5C(=O)N[C@@H](C)c5ccc(C#N)cc5)C(C)C)on4)CC3)nc3c(F)c(-c4cc(O)cc5ccccc45)c(Cl)cc23)C[C@@H]1CC#N [Compound 161, (2S,4R)-1-[(2S)-2-[3-({1-[2-({6-chloro-4-[(3S)-3-(cyanomethyl)-4-(prop-2-enoyl)piperazin-1-yl]-8-fluoro-7-(3-hydroxynaphthalen-1-yl)quinazolin-2-yl}oxy)ethyl]piperidin-4-yl}methoxy)-1,2-oxazol-5-yl]-3-methylbutanoyl]-N-[(1S)-1-(4-cyanophenyl)ethyl]-4-hydroxypyrrolidine-2-carboxamide] | –
– | > 70 | – | < 0.1 | – | 0.1 to 1 | > 70 | – | C=CC(=O)N1CCN(c2nc(OCCN3CCC(F)(COc4cc([C@H](C(=O)N5C[C@H](O)C[C@H]5C(=O)N[C@@H](C)c5ccc(-c6scnc6C)cc5)C(C)C)on4)CC3)nc3c(F)c(-c4cc(O)cc5ccccc45)c(Cl)cc23)C[C@@H]1CC#N [Compound 133, (2S,4R)-1-[(2R)-2-[3-({1-[2-({6-chloro-4-[(3S)-3-(cyanomethyl)-4-(prop-2-enoyl)piperazin-1-yl]-8-fluoro-7-(3-hydroxynaphthalen-1-yl)quinazolin-2-yl}oxy)ethyl]-4-fluoropiperidin-4-yl}methoxy)-1,2-oxazol-5-yl]-3-methylbutanoyl]-4-hydroxy-N-[(1S)-1-[4-(4-methyl-1,3-thiazol-5-yl)phenyl]ethyl]pyrrolidine-2-carboxamide] | –
– | 35 to 70 | – | < 0.1 | – | < 0.1 | > 70 | – | C=C(F)C(=O)N1CCN(c2nc(OCCN3CCC4(CC3)CN(c3cc([C@H](C(=O)N5C[C@H](O)C[C@H]5C(=O)N[C@@H](C)c5ccc(-c6scnc6C)cc5)C(C)C)on3)C4)nc3c(F)c(-c4cc(O)cc5ccccc45)c(Cl)cc23)C[C@@H]1CC#N (atropisomer, axis not shown) [Compound 109, (2S,4R)-1-[(2R)-2-(3-{7-[2-({6-chloro-4-[(3S)-3-(cyanomethyl)-4-(2-fluoroprop-2-enoyl)piperazin-1-yl]-8-fluoro-7-(3-hydroxynaphthalen-1-yl)quinazolin-2-yl}oxy)ethyl]-2,7-diazaspiro[3.5]nonan-2-yl}-1,2-oxazol-5-yl)-3-methylbutanoyl]-4-hydroxy-N-[(1S)-1-[4-(4-methyl-1,3-thiazol-5-yl)phenyl]ethyl]pyrrolidine-2-carboxamide] | –
– | > 70 | – | 0.1 to 1 | – | 0.1 to 1 | > 70 | – | C=CC(=O)N1CCN(c2nc(OCCN3CCC(C)(COCC(=O)N[C@H](C(=O)N4C[C@H](O)C[C@H]4C(=O)N[C@@H](C)c4ccc(-c5scnc5C)cc4)C(C)(C)C)CC3)nc3c(F)c(-c4cc(O)cc5ccccc45)c(Cl)cc23)C[C@@H]1CC#N [Compound 149, (2S,4R)-1-[(2S)-2-[2-({1-[2-({6-chloro-4-[(3S)-3-(cyanomethyl)-4-(prop-2-enoyl)piperazin-1-yl]-8-fluoro-7-(3-hydroxynaphthalen-1-yl)quinazolin-2-yl}oxy)ethyl]-4-methylpiperidin-4-yl}methoxy)acetamido]-3,3-dimethylbutanoyl]-4-hydroxy-N-[(1S)-1-[4-(4-methyl-1,3-thiazol-5-yl)phenyl]ethyl]pyrrolidine-2-carboxamide] | –
35 to 70 | – | 0.1 to 1 | > 1 | > 1 | > 1 | – | – | C=CC(=O)N1CCN(c2nc(OC[C@@H]3C[C@@H](OCCOc4cc(-c5scnc5C)ccc4CNC(=O)[C@@H]4C[C@@H](O)CN4C(=O)[C@H](c4cc(C)no4)C(C)C)CN3C)nc3c2CCN(c2cccc4ccccc24)C3)C[C@@H]1CC#N [Compound 89, (2S,4R)-N-{[2-(2-{[(3R,5S)-5-[({4-[(3S)-3-(cyanomethyl)-4-(prop-2-enoyl)piperazin-1-yl]-7-(naphthalen-1-yl)-5H,6H,7H,8H-pyrido[3,4-d]pyrimidin-2-yl}oxy)methyl]-1-methylpyrrolidin-3-yl]oxy}ethoxy)-4-(4-methyl-1,3-thiazol-5-yl)phenyl]methyl}-4-hydroxy-1-[(2S)-3-methyl-2-(3-methyl-1,2-oxazol-5-yl)butanoyl]pyrrolidine-2-carboxamide] | –
> 70 | > 70 | 0.1 to 1 | – | – | – | > 70 | 35 to 70 | C=C(F)C(=O)N1CCN(c2nc(OCCN3CCC(OCCOc4cc([C@H](C(=O)N5C[C@H](O)C[C@H]5C(=O)N[C@@H](C)c5ccc(-c6scnc6C)cc5)C(C)C)on4)CC3)nc3c(F)c(-c4cc(O)cc5ccccc45)c(Cl)cc23)C[C@@H]1CC#N [Compound 16, (2S,4R)-1-[(2R)-2-{3-[2-({1-[2-({6-chloro-4-[(3S)-3-(cyanomethyl)-4-(2-fluoroprop-2-enoyl)piperazin-1-yl]-8-fluoro-7-(3-hydroxynaphthalen-1-yl)quinazolin-2-yl}oxy)ethyl]piperidin-4-yl}oxy)ethoxy]-1,2-oxazol-5-yl}-3-methylbutanoyl]-4-hydroxy-N-[(1S)-1-[4-(4-methyl-1,3-thiazol-5-yl)phenyl]ethyl]pyrrolidine-2-carboxamide] | –
35 to 70 | > 70 | 0.1 to 1 | – | – | – | > 70 | 35 to 70 | C=CC(=O)N1CCN(c2nc(OCCN3CCC(OCCOCC(=O)N[C@H](C(=O)N4C[C@H](O)C[C@H]4C(=O)N[C@@H](C)c4ccc(-c5scnc5C)cc4)C(C)(C)C)CC3)nc3c(F)c(-c4cc(O)cc5ccccc45)c(Cl)cc23)C[C@@H]1CC#N [Compound 32, (2S,4R)-1-[(2S)-2-{2-[2-({1-[2-({6-chloro-4-[(3S)-3-(cyanomethyl)-4-(prop-2-enoyl)piperazin-1-yl]-8-fluoro-7-(3-hydroxynaphthalen-1-yl)quinazolin-2-yl}oxy)ethyl]piperidin-4-yl}oxy)ethoxy]acetamido}-3,3-dimethylbutanoyl]-4-hydroxy-N-[(1S)-1-[4-(4-methyl-1,3-thiazol-5-yl)phenyl]ethyl]pyrrolidine-2-carboxamide] | –

Structure (SMILES) | Dmax (HiBit-KRAS^G12C [1]; [3]) [%] | Dmax (HiBit-KRAS^G12C [1]; [4]) [%] | DC50 (HiBit-KRAS^G12C [1]; [5]) [µM] | DC50 (HiBit-KRAS^G12C [1]; [6]) [µM] | DC50 (HiBit-KRAS^G12C [2]; [7]) [µM] | DC50 (HiBit-KRAS^G12C [2]; [8]) [µM] | Dmax (HiBit-KRAS^G12C [2]; [9]) [%] | Dmax (HiBit-KRAS^G12C [2]; [10]) [%] | Dmax (HiBit-KRAS^G12C [2]; MIA PaCa-2, read-out: KRas^G12C-HiBiT (MiaPaCa; 0.1% DMSO) DMax, MiaPaCa-2 HiBit-KRas^G12C cells, 0.1% DMSO) [%]
C=CC(=O)N1CCN(c2nc(OCCN3CCC(COCC(=O)N[C@H](C(=O)N4C[C@@H](O)C[C@H]4C(=O)N[C@@H](C)c4ccc(-c5scnc5C)cc4)C(C)(C)C)CC3)nc3c(F)c(-c4cc(O)cc5ccccc45)c(Cl)cc23)C[C@@H]1CC#N [Compound 6, (2S,4S)-1-[(2S)-2-[2-({1-[2-({6-chloro-4-[(3S)-3-(cyanomethyl)-4-(prop-2-enoyl)piperazin-1-yl]-8-fluoro-7-(3-hydroxynaphthalen-1-yl)quinazolin-2-yl}oxy)ethyl]piperidin-4-yl}methoxy)acetamido]-3,3-dimethylbutanoyl]-4-hydroxy-N-[(1S)-1-[4-(4-methyl-1,3-thiazol-5-yl)phenyl]ethyl]pyrrolidine-2-carboxamide] | – | – | > 1 | – | – | – | – | – | 35 to 70

Source: patent publication US20220370416A1, “COMPOUNDS AND METHODS FOR TARGETED DEGRADATION OF KRAS” (Arvinas Operations, Inc., priority 2020, published 2022)
